“Also recorded” adds a separate entry of the source. Counter-ions that a name gives are not always drawn.
Legend:
[1] = tested on: wild-type E. coli; assay: Sensitization of wild-type E. coli toward antibiotics (MIC of antibiotic with/without sensitizer); assay type: cell-based, Escherichia coli; details: for Sensitization fold: compound at 5 μg/ml, strain and antibiotic not stated in Table 8
Description: Bacteria were cultured with the antibiotic at various concentrations in the presence or absence of bacterial sensitizer for 24 hours at 37° C. Bacterial growth density was determined by measuring OD600 (absorbance measured at a wavelength of 600 nm). […]
The formula for calculating FIC is shown below: […]

[2] = tested on: E. coli; assay: O-methyl novobiocin concentration inside E. coli (HPLC of lysate); assay type: cell-based, Escherichia coli; details: 50 μg/ml O-methyl novobiocin, 24 h, with 10 μg/ml Compound M-1 vs without
Description: The antibiotic concentration inside E. coli with and without Compound M-1 was measured. The inactivated form of antibiotic was used because the active antibiotic would kill the bacteria or inhibit bacterial growth and this would lead to results that cannot be compared against other control experiments. O-Methyl novobiocin is an inactivated form of novobiocin that was used for this experiment.
E. coli was cultured with 50 μg/ml O-methyl novobiocin for 24 hours at 37° C. with continuous shaking in the absence and presence of 10 μg/ml Compound M-1. E. coli was then centrifuged and the supernatant was removed. To the precipitation that contained E. coli, PBS and novobiocin were added as internal standard and the resulting mixture was sonicated to lyse the cell. The mixture was diluted with acetonitrile (3×) and centrifuged. The supernatant, which contained O-methyl novobiocin, was analyzed by HPLC. The O-methyl novobiocin concentrations inside the bacteria increased 9.1-fold in E. coli in the presence of 10 μg/ml Compound M-1 (FIG. 19). Such results correlate well with the fact that 10 μg/ml Compound M-1 can sensitize E. coli towards novobiocin 8-fold.

[3] = tested on: E. coli; assay: Resistance frequency analysis of E. coli on agar plates; assay type: cell-based, Escherichia coli; details: from 6*10^8 CFU E. coli; antibiotic at 2 to 6-fold MIC with 10 μg/ml Compound M-1, 48 h
Description: Resistance frequency is an important issue to consider when developing new antimicrobial agents. Using a standard resistance frequency analysis procedure, the resistance frequency was determined. […] Colonies that survived the antibiotic and Compound M-1 combination were considered resistant mutant strains toward this combinational treatment. […] Compound M-1 lowers the resistance frequency of bacteria toward antibiotics. The component in the combination responsible for the resistance was next determined. The 16 resistant colonies were challenged with another combination-rifampicin and Compound M-1.

[4] = tested on: wild type B. subtilis; assay: Sensitization of B. subtilis toward antibiotics (MIC, OD600, 24 h); assay type: cell-based, Bacillus subtilis
Description: (§1) FIG. 22A is a bar graph showing that Compound M-1 sensitizes B. subtilis towards rifampicin as described in Example 13. Bacteria was cultured with rifampicin at various concentrations in the presence or absence of Compound M-1 for 24 hours at 37° C. and bacterial growth density was determined by measuring OD600. The y-axis is growth density measured in percent. The x-axis is rifampicin concentration measured in micrograms per milliliter (***: p<0.01).
Compound M-1 can sensitize Gram-positive bacteria such as B. subtilis towards traditional antibiotics. […] The sensitization fold is 32-fold for Compound M-1 and the FIC index is 0.14.

[5] = tested on: MRSA; assay: Sensitization of MRSA toward antibiotics (OD600, 24 h); assay type: cell-based, Staphylococcus aureus; details: for Sensitization of MRSA towards rifampicin (qualitative): FIG. 22B, 24 h, 37 °C
Description: as §1, with “Bacteria” for “FIG. 22A is a bar graph showing that Compound M-1 sensitizes B. subtilis towards rifampicin as described in Example 13. Bacteria”
Compound M-1 (2.7 μg/ml) sensitizes MRSA towards existing antibiotics such as rifampicin (32-fold) (FIG. 22B) and trovafloxacin (16-fold). Rifampicin is the first line of defense against MRSA and many MRSA stains grow resistance to rifampicin through overexpression of efflux pump and other mechanisms. Combined with Compound M-1, rifampicin can be used more effectively against MRSA.

[6] = tested on: B. subtilis; assay: B. subtilis viability with antibiotic in absence or presence of compound (OD600, 20 h); assay type: cell-based, Bacillus subtilis; details: for B. subtilis growth inhibition, compound in combination with erythromycin vs erythromycin alone: M-1 12.5 or 6 μM, A-2 6 or 12.5 μM, A-8
Description: Bacterial viability was then determined by measuring density using OD600. […] B. subtilis was also cultured with either novobiocin or tetracycline at varying concentrations either in the absence or presence of compound M-1 (12.5 μM) for 20 hours. Bacterial viability was subsequently determined by measuring density using OD600.
(§2) Bacterial viability was then determined by measuring density using OD600.

[7] = tested on: E. coli; assay: E. coli viability with antibiotic in absence or presence of compound (OD600, 20 h); assay type: cell-based, Escherichia coli; details: for E. coli growth inhibition, compound in combination with erythromycin: M-1 25 μM or 12 μM, A-1 12 μM, A-8, 20 h
Description: as §2

[8] = tested on: wild type B. subtilis; assay: Sensitization of B. subtilis toward antibiotics (MIC, OD600, 24 h); assay type: cell-based, Bacillus subtilis; details: Compound M-1 5.5 μg/ml
[9] = tested on: E. coli and MRSA; assay: Relative ratio of E. coli and MRSA under trovafloxacin with/without Compound A-8; assay type: cell-based, Escherichia coli; Staphylococcus aureus
Excerpt: FIG. 23A is a comparison of the relative ratio of E. coli and MRSA treated with the antibiotic trovafloxacin in the absence (pie chart on the left) and in the presence (pie chart on the right) of Compound A-8 as described in Example 14. In the absence of Compound A-8, trovafloxacin preferred to inhibit E. coli and the bacterial population was 78% MRSA. However, Compound A-8 sensitizes trovafloxacin to MRSA.
(§3) As a proof of concept, the relative ratio of E. coli and MRSA (FIG. 23A) or B. subtilis and MRSA (FIG. 23 B) was measured with and without Compound A-8. […] However, when trovafloxacin (8 ng/ml) is supplied with 1.5 μg/ml of Compound A-8, MRSA inhibition was achieved and E. coli was the dominant species (89% of the bacteria population).

[10] = tested on: B. subtilis and MRSA; assay: Relative ratio of B. subtilis and MRSA under trovafloxacin with/without Compound A-8; assay type: cell-based, Bacillus subtilis; Staphylococcus aureus
Description: FIG. 23B is a comparison of the relative ratio of B. sub and MRSA treated with the antibiotic trovafloxacin in the absence (pie chart on the left) and in the presence (pie chart on the right) of Compound A-8 as described in Example 14. […] However, Compound A-8 sensitizes trovafloxacin to MRSA.
as §3

[11] = tested on: Klebsiella pneumoniae; assay: Sensitization of Klebsiella pneumoniae to clarithromycin; assay type: cell-based; details: FIG. 16
Excerpt: The x-axis is clarithromycin measured in μg/ml and the y-axis is growth measured in percent.

[12] = tested on: E. coli outer membrane; assay: E. coli outer membrane integrity, lysozyme lysis assay; assay type: cell-based, Escherichia coli; details: lysozyme 50 μg/ml, Compound C 25 μg/ml, 10 min, OD600; dihydrochloride
Description: FIG. 20 is a graph of the E. coli outer membrane integrity measurement using the lysosomal lysis assay as described in Example 10. E. coli (OD600 measurement of about 0.5) was treated with Compound C with or without lysozyme for 10 minutes at room temperature. E. coli with impaired outer membrane caused by Compound C lead to decreased OD600 measurements. The x-axis is labeled with the compound and the y-axis is E. coli growth density determined by measuring OD600, Polymyxin B and pentamidine were used as positive controls.
The mechanism of action was also elucidated using a well-recognized lysosome assay that allows for assessment of membrane permeability. Specifically, lysozyme (about 14 KDa) breaks down bacterial cell wall and leads to bacterial lysis. However, lysozyme cannot penetrate intact Gram-negative bacterial outer membrane. With impaired Gram-negative bacterial membrane, lysozyme is able to diffuse across the disrupted membrane and enzymatically cleave peptidoglycan, which leads to bacterial lysis. […] In the absence of the sensitizer, no cell lysis was observed.

[13] = Lipid A binding assay using Dansyl-PMBN displacement on E. coli; set-up: species or system Escherichia coli; details: 10 μM Dansyl-PMBN on E. coli, gradual addition of compound
Description: FIG. 21 is a graph describing the in vivo lipid A binding assay using Dansyl-PMBN as described in Example 11. Dansyl-PMBN (10 μM) was added to E. coli (OD600 measurement of about 0.5) and the fluorescent intensity at this time was recorded as F0. Sensitizers (Compound C, Compound E-20, and Polymyxin B) were added gradually and the fluorescent intensity was recorded 30 seconds later to determine the fluorescent intensity as a percent. The x-axis is concentration of the sensitizers measured in μM and the y-axis is the fluorescent intensity measured as a percent.
Lipid A is a key component of the outer membrane of Gram-negative bacteria and is responsible for maintaining its integrity of the outer membrane. The binding affinity of the compounds of the present invention to Lipid A was measured following literature procedures using a fluorescent conjugate of a polymyxin-B derivative (Dansyl-PMBN). Dansyl-PMBN binds to the lipid A part of LPS and leads to increased fluorescent intensity. […] When 10 μM of Dansyl-PMBN was added to E. coli stock (OD600 measurement around 0.5), the fluorescent intensity increased 10-fold.

[14] = trovafloxacin in presence of Compound A-8

Cc1cc(COc2ccc(C(=N)N)cc2)cc(COc2ccc(C(=N)N)cc2)c1 [Compound M-1, 4,4′-(((5-Methyl-1,3-phenylene)bis(methylene))bis(oxy))dibenzimidamide Hydrochloride]
Sensitization of E. coli towards novobiocin ([1]; 10 μg/ml Compound M-1): 8 fold
Sensitization fold [1]: 8
Increase of O-methyl novobiocin concentration inside E. coli [2]: 9.1 fold
Colonies resistant to antibiotic-Compound M-1 combinations [3]: 16 colonies
FIC index, rifampicin on B. subtilis ([4]; 5.5 μg/ml Compound M-1): 0.11
Sensitization fold, B. subtilis towards rifampicin ([4]; 5.5 μg/ml Compound M-1): 256 fold
Growth density compared with no-treatment group ([4]; 5.5 μg/ml of Compound M-1 by itself): 80%
MIC ([4]; Bacillus subtilis, read-out: MIC on wild type B. subtilis): 50 µg/mL
Sensitization fold, MRSA towards rifampicin ([5]; Compound M-1 2.7 μg/ml): 32 fold
Sensitization fold, MRSA towards trovafloxacin ([5]; Compound M-1 2.7 μg/ml): 16 fold
Sensitization of MRSA towards rifampicin (qualitative) [5]: sensitize MRSA towards rifampicin
viability at 12.5 µM ([6]; Bacillus subtilis, 12.5 μM, 20 h, read-out: B. subtilis viability, compound alone): 80%
B. subtilis growth inhibition, compound in combination with novobiocin or tetracycline ([6]; Compound M-1 12.5 μM, 20 h): significant bacterial growth inhibition
Effect of lipoteichoic acid (LTA) on growth inhibition by erythromycin + M-1 in B. subtilis ([6]; LTA 1 mg/mL): could be inhibited by co-culturing with lipoteichoic acid (LTA)
B. subtilis growth inhibition, compound in combination with erythromycin vs erythromycin alone ([6]; 20 h): significant bacterial growth inhibition
Effect of LPS or Mg2+ on sensitization of E. coli by M-1 with erythromycin ([7]; 2 mg/mL LPS or 21 mM Mg2+, M-1 12 μM): inhibited
E. coli growth inhibition, compound in combination with erythromycin [7]: significant bacterial growth inhibition
FIC index, erythromycin on B. subtilis [8]: 0.14
Sensitization fold, B. subtilis towards clarithromycin [8]: 32 fold
Sensitization fold, B. subtilis towards clindamycin [8]: 16 fold
Sensitization fold, B. subtilis towards entrapenem [8]: 4 fold
Sensitization fold, B. subtilis towards erythromycin [8]: 32 fold
Sensitization fold, B. subtilis towards methicillin [8]: 4 fold
Sensitization fold, B. subtilis towards novobiocin [8]: 4 fold
Sensitization fold, B. subtilis towards trovafloxacin [8]: 8 fold

Cc1cc(CCc2ccc(C(=N)N)cc2)cc(CCc2ccc(C(=N)N)cc2)c1 [Compound A-8, 4,4′-((5-Methyl-1,3-phenylene)bis(ethane-2,1-diyl))dibenzimidamide Dihydrochloride]
Concentration required to sensitize wild type E. coli towards rifampicin 32-fold [1]: 7 µg/mL
Sensitization fold [1]: 16
Concentration required to sensitize B. subtilis towards rifampicin 32-fold [4]: 3 µg/mL
Concentration required to sensitize MRSA towards rifampicin 32-fold [5]: 1.5 µg/mL
Sensitization of MRSA towards rifampicin (qualitative) [5]: sensitize MRSA towards rifampicin
E. coli share of the bacteria population (E. coli + MRSA) ([9]; trovafloxacin (8 ng/ml) with 1.5 μg/ml of Compound A-8): 89%
MRSA share of the bacteria population (E. coli + MRSA) [9, 14]: 11%
B. subtilis share of the bacteria population (B. subtilis + MRSA) ([10]; 8 ng/ml trovafloxacin and 1.5 μg/ml of Compound A-8): 99.5%
MRSA share of the bacteria population (B. subtilis + MRSA) [10, 14]: 0.5%
B. subtilis growth inhibition, compound in combination with erythromycin vs erythromycin alone ([6]; 20 h): significant bacterial growth inhibition
E. coli growth inhibition, compound in combination with erythromycin [7]: growth inhibition was also observed
Sensitization of Klebsiella pneumoniae to clarithromycin [11]: sensitization of Klebsiella pneumoniae to clarithromycin

N=C(N)c1ccc(COc2cc(OCc3ccc(C(=N)N)cc3)cc(C(F)(F)F)c2)cc1 [Compound C, 1,3-Bis {(4-amidino)-benzyloxy}-5-trifluoromethylbenzene dihydrochloride]
Minimal concentration achieving 10-fold sensitization of E. coli toward erythromycin [1]: 2.5 μg/ml
Sensitization fold, rifampicin on E. coli ([1]; Compound C 2 μg/ml): 8
Sensitization fold, rifampicin on E. coli ([1]; Compound C 4 μg/ml): 128
Sensitization fold, rifampicin on E. coli ([1]; Compound C 6 μg/ml): 1024
Sensitization fold, rifampicin on E. coli ([1]; Compound C 8 μg/ml): 2,048
MIC of rifampicin on E. coli ([1]; with Compound C 2 μg/ml): 1.25 µg/mL
MIC of rifampicin on E. coli ([1]; with Compound C 4 μg/ml): 0.08 µg/mL
MIC of rifampicin on E. coli ([1]; with Compound C 6 μg/ml): 0.01 µg/mL
MIC of rifampicin on E. coli ([1]; with Compound C 8 μg/ml): 0.005 µg/mL
MIC of rifampicin on E. coli ([1]; with Compound C 10 μg/ml): 0.0006 µg/mL
Lysozyme-induced lysis of E. coli (membrane integrity) [12]: quick bacterial lysis; also recorded: more potent than pentamidine
Binding to lipid A (decrease of Dansyl-PMBN fluorescent intensity) [13]: bind to lipid A

From patent publication US12595251B2, “Amidines and amidine analogs for the treatment of bacterial infections and potentiation antibiotics” (GEORGIA STATE UNIVERSITY RESEARCH FOUNDATION, INC., priority 2018, dated 2026)
